{"source": "patent US20090317383A1", "about": "“CANCER TREATMENT METHOD” (priority 2004, published 2009)", "key": {"[1]": {"test_system": "tumor cells overexpressing EGFR or erbB2", "conditions": "Rusnak et al., 2001b; Xia et al., 2002; cited from earlier work"}, "EGFR and erbB2 kinases": {"test_system": "EGFR and erbB2 kinases", "conditions": "Rusnak et al., 2001b; Xia et al., 2002; cited from earlier work"}, "[2]": {"test_system": "HER-2/neu transfected MCF-7 cell line", "assay": "Cell growth, MTT tetrazolium dye assay", "assay_type": "cell-based, human", "conditions": "1-10 uM", "method": "(§1) The effect of a combination of lapatanib with a Bcl-2 inhibitor (HA14-1) on the growth of MCF-7 human breast cancer cells, a HER-2/neu transfected MCF-7 cell line and a tamoxifen (TAM) resistant MCF-7 cell line was examined. Cell growth was determined using the MTT tetrazolium dye assay. Cells were dosed with Lapatinib and HA14-1 as monotherapies."}, "[3]": {"test_system": "tamoxifen (TAM) resistant MCF-7 cell line", "assay": "Cell growth, MTT tetrazolium dye assay", "assay_type": "cell-based, human", "conditions": "1-10 uM", "method": "as §1"}, "[4]": {"test_system": "MCF-7 human breast cancer cells", "assay": "Cell growth, MTT tetrazolium dye assay", "assay_type": "cell-based", "conditions": "1-10 uM", "method": "as §1"}, "BT474 tumors": {"test_system": "BT474 tumors", "assay": "BT474 vs. Lapatinib and Docetaxel Combination (mice with BT474 tumors)", "assay_type": "in vivo", "method": "Mice with BT474 tumors were administered lapatinib alone (200 and 100 mg/kg; SID×21 Days, or 2 days and 1 day before docetaxel) and in combination with docetaxel (25 and 50 mg/kg IP, once weekly×3 weeks).\nIn the first experiment there were no deaths, and in the second experiment there was one death in a group of eight mice receiving docetaxel (25 mg/kg) and lapatinib (200 mg/kg×21 days). All surviving mice rapidly regained body weight when dosing was completed. The treatment groups and results follow."}}}
{"smiles": "CS(=O)(=O)CCNCc1ccc(-c2ccc3ncnc(Nc4ccc(OCc5cccc(F)c5)c(Cl)c4)c3c2)o1", "note": "[GW572016, N-{3-chloro-4-[(3-fluorobenzyl)oxy]phenyl}-6-[5-({[2-(methanesulphonyl)ethyl]amino}methyl)-2-furyl]-4-quinazolinamine]", "values": [{"measurement": "Selectivity of tumor cell inhibition", "setting": "[1]", "result": "selectively inhibits tumor cells overexpressing EGFR or erbB2"}, {"measurement": "Kinase inhibition in human xenograft studies", "setting": "EGFR and erbB2 kinases", "result": "dose-dependent kinase inhibition"}]}
{"smiles": "CCOC(=O)C1=C(N)Oc2ccc(Br)cc2C1C(C#N)C(=O)OCC", "note": "(stereo not drawn) [HA14-1, ethyl [2-amino-6-bromo-4-(1-cyano-2-ethoxy-2oxoethyl)]4H-chromene-3-carboxylate, reference compound]", "values": [{"measurement": "Cell growth inhibition, monotherapy", "setting": "[2]", "result": "dose-dependent growth inhibition"}, {"measurement": "Cell growth inhibition, monotherapy", "setting": "[3]", "result": "dose-dependent growth inhibition"}, {"measurement": "Cell growth inhibition, monotherapy", "setting": "[4]", "result": "dose-dependent growth inhibition"}]}
{"smiles": "CC(=O)O[C@@]12CO[C@@H]1C[C@H](O)[C@@]1(C)C(=O)[C@H](O)C3=C(C)[C@@H](OC(=O)[C@H](O)[C@@H](NC(=O)OC(C)(C)C)c4ccccc4)C[C@@](O)([C@@H](OC(=O)c4ccccc4)[C@H]21)C3(C)C", "note": "[docetaxel, (2R,3S)-N-carboxy-3-phenylisoserine,N-tert-butyl ester, 13-ester with 5β-20-epoxy-1,2α,4,7β,10β,13α-hexahydroxytax-11-en-9-one 4-acetate 2-benzoate, trihydrate]", "values": [{"measurement": "Body weight", "setting": "BT474 tumors; 25 and 50 mg/kg, after 3 weekly doses, both experiments", "result": "caused weight loss"}, {"measurement": "% Inhibition", "setting": "BT474 tumors; Tax-25 (25 mg/kg IP), Days 3, 10, 17", "result": 77, "unit": "%"}, {"measurement": "% Inhibition", "setting": "BT474 tumors; Tax-50 (50 mg/kg IP), Days 3, 10, 17", "result": 98, "unit": "%"}, {"measurement": "Efficacy against BT474 tumors (in words)", "setting": "BT474 tumors; docetaxel at 50 mg/kg, both experiments", "result": "highly effective"}]}
{"smiles": "CS(=O)(=O)CCNCc1ccc(-c2ccc3ncnc(Nc4ccc(OCc5cccc(F)c5)c(Cl)c4)c3c2)o1.Cc1ccc(S(=O)(=O)O)cc1", "note": "[lapatinib, N-{3-Chloro-4-[(3-fluorobenzyl)oxy]phenyl}-6-[5-({[2-(methanesulphonyl)ethyl]amino}methyl)-2-furyl]-4-quinazolinamine ditosylate monhydrate]", "values": [{"measurement": "Cell growth inhibition, monotherapy", "setting": "[2]", "result": "dose-dependent growth inhibition"}, {"measurement": "Cell growth inhibition, monotherapy", "setting": "[3]", "result": "dose-dependent growth inhibition"}, {"measurement": "Cell growth inhibition, monotherapy", "setting": "[4]", "result": "dose-dependent growth inhibition"}, {"measurement": "% Inhibition", "setting": "BT474 tumors; GW016-100 (100 mg/kg), sid × 21 days", "result": 79, "unit": "%"}, {"measurement": "% Inhibition", "setting": "BT474 tumors; GW016-200 (200 mg/kg), sid × 21 Days", "result": 102, "unit": "%"}, {"measurement": "% Inhibition", "setting": "BT474 tumors; GW016-200, twice weekly on consecutive days × 3 weeks", "result": 58, "unit": "%"}]}
